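Results reflect a 48-hour exposure of cells in 96-well plates to compound at five concentrations. TGI is the concentration that stops growth completely.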
What was measured:
Test in all cases: DTP human tumour cell line panel, 48 h
HOP-92 NSCLC = system: HOP-92 NSCLC
SW-620 colon = system: SW-620 colon
RPMI-8226 leukemia = system: RPMI-8226 leukemia
K-562 leukemia = system: K-562 leukemia
SK-MEL-28 melanoma = system: SK-MEL-28 melanoma
786-0 renal = system: 786-0 renal
NCI-H226 lung = system: NCI-H226 lung
U251 CNS = system: U251 CNS
SNB-19 CNS = system: SNB-19 CNS
HOP-62 NSCLC = system: HOP-62 NSCLC
M14 melanoma = system: M14 melanoma
HS 578T breast = system: HS 578T breast
HT29 colon = system: HT29 colon
BT-549 breast = system: BT-549 breast
NCI-H522 lung = system: NCI-H522 lung
UACC-257 melanoma = system: UACC-257 melanoma
IGROV1 ovarian = system: IGROV1 ovarian
HCT-116 colon = system: HCT-116 colon
PC-3 prostate = system: PC-3 prostate

## Clc1ccc(CCN2CCN(CCCc3ccccc3)CC2)cc1Cl
HOP-92 NSCLC
  TGI: 23.6 µM
SW-620 colon
  TGI: 51.6 µM
RPMI-8226 leukemia
  TGI: 55.2 µM
K-562 leukemia
  TGI: > 100 µM
SK-MEL-28 melanoma
  TGI: 37.5 µM
786-0 renal
  TGI: 30.2 µM
NCI-H226 lung
  TGI: 38 µM
U251 CNS
  TGI: 31.9 µM
SNB-19 CNS
  TGI: 30.8 µM
HOP-62 NSCLC
  TGI: 35.8 µM
M14 melanoma
  TGI: 28.1 µM
HS 578T breast
  TGI: 44.9 µM
HT29 colon
  TGI: 26.9 µM
BT-549 breast
  TGI: 29.4 µM
NCI-H522 lung
  TGI: 36.7 µM
UACC-257 melanoma
  TGI: 31.3 µM
IGROV1 ovarian
  TGI: 31.3 µM
HCT-116 colon
  TGI: 28.4 µM
PC-3 prostate
  TGI: 31.6 µM

## C[C@H]1C(=O)C2=C[C@H]1CCC(=O)[C@]1(C)CCCC(C)(C)[C@H]1C[C@H]2O
HOP-92 NSCLC
  TGI: 54.3 µM
SW-620 colon
  TGI: 28.2 µM
RPMI-8226 leukemia
  TGI: 34.2 µM
K-562 leukemia
  TGI: 33.4 µM
SK-MEL-28 melanoma
  TGI: > 100 µM
786-0 renal
  TGI: 32.5 µM
NCI-H226 lung
  TGI: 84.3 µM
U251 CNS
  TGI: 28.4 µM
SNB-19 CNS
  TGI: > 100 µM
HOP-62 NSCLC
  TGI: > 100 µM
M14 melanoma
  TGI: 25.9 µM
HS 578T breast
  TGI: 62.7 µM
HT29 colon
  TGI: 28.6 µM
BT-549 breast
  TGI: 94.5 µM
NCI-H522 lung
  TGI: 20.6 µM
UACC-257 melanoma
  TGI: 83.6 µM
IGROV1 ovarian
  TGI: > 100 µM
HCT-116 colon
  TGI: > 100 µM
PC-3 prostate
  TGI: > 100 µM

## COc1cc(C2c3cc4c(c(O)c3C(=O)C3CCC(=O)N32)OCO4)cc(OC)c1OC (centres undefined)
HOP-92 NSCLC
  TGI: 86.7 µM
SW-620 colon
  TGI: > 100 µM
RPMI-8226 leukemia
  TGI: > 100 µM
K-562 leukemia
  TGI: > 100 µM
SK-MEL-28 melanoma
  TGI: > 100 µM
786-0 renal
  TGI: > 100 µM
NCI-H226 lung
  TGI: > 100 µM
U251 CNS
  TGI: > 100 µM
SNB-19 CNS
  TGI: > 100 µM
HOP-62 NSCLC
  TGI: > 100 µM
M14 melanoma
  TGI: > 100 µM
HS 578T breast
  TGI: > 100 µM
HT29 colon
  TGI: > 100 µM
BT-549 breast
  TGI: 92.5 µM
NCI-H522 lung
  TGI: 38.9 µM
UACC-257 melanoma
  TGI: > 100 µM
IGROV1 ovarian
  TGI: > 100 µM
HCT-116 colon
  TGI: > 100 µM
PC-3 prostate
  TGI: > 100 µM

## CCOc1c(OC)cc(CNNc2nccs2)cc1OC
HOP-92 NSCLC
  TGI: > 100 µM
SW-620 colon
  TGI: > 100 µM
RPMI-8226 leukemia
  TGI: > 100 µM
K-562 leukemia
  TGI: > 100 µM
SK-MEL-28 melanoma
  TGI: > 100 µM
786-0 renal
  TGI: > 100 µM
NCI-H226 lung
  TGI: > 100 µM
U251 CNS
  TGI: > 100 µM
SNB-19 CNS
  TGI: > 100 µM
HOP-62 NSCLC
  TGI: > 100 µM
M14 melanoma
  TGI: > 100 µM
HS 578T breast
  TGI: > 100 µM
HT29 colon
  TGI: > 100 µM
BT-549 breast
  TGI: > 100 µM
NCI-H522 lung
  TGI: > 100 µM
UACC-257 melanoma
  TGI: > 100 µM
IGROV1 ovarian
  TGI: > 100 µM
HCT-116 colon
  TGI: > 100 µM
PC-3 prostate
  TGI: > 100 µM

## Cc1ccc(-c2cn3c(nc4ccccc43)c(C)n2)cc1
HOP-92 NSCLC
  TGI: 98.1 µM
SW-620 colon
  TGI: > 100 µM
RPMI-8226 leukemia
  TGI: > 100 µM
K-562 leukemia
  TGI: > 100 µM
SK-MEL-28 melanoma
  TGI: > 100 µM
786-0 renal
  TGI: > 75.5 µM
NCI-H226 lung
  TGI: > 100 µM
U251 CNS
  TGI: > 87.7 µM
SNB-19 CNS
  TGI: > 100 µM
HOP-62 NSCLC
  TGI: > 100 µM
M14 melanoma
  TGI: > 100 µM
HS 578T breast
  TGI: > 100 µM
HT29 colon
  TGI: > 100 µM
BT-549 breast
  TGI: > 89.4 µM
NCI-H522 lung
  TGI: > 100 µM
UACC-257 melanoma
  TGI: > 100 µM
IGROV1 ovarian
  TGI: > 31.6 µM
HCT-116 colon
  TGI: > 100 µM
PC-3 prostate
  TGI: > 100 µM

## COc1cc(OC)cc(N(C)Cc2cnc3nc(N)nc(N)c3c2C)c1
HOP-92 NSCLC
  TGI: > 100 µM
SW-620 colon
  TGI: > 100 µM
RPMI-8226 leukemia
  TGI: > 100 µM
K-562 leukemia
  TGI: > 100 µM
SK-MEL-28 melanoma
  TGI: > 100 µM
786-0 renal
  TGI: > 100 µM
NCI-H226 lung
  TGI: > 100 µM
U251 CNS
  TGI: > 100 µM
SNB-19 CNS
  TGI: > 100 µM
HOP-62 NSCLC
  TGI: > 36.1 µM
M14 melanoma
  TGI: 55.4 µM
HS 578T breast
  TGI: > 100 µM
HT29 colon
  TGI: > 100 µM
BT-549 breast
  TGI: > 100 µM
NCI-H522 lung
  TGI: 43.6 µM
UACC-257 melanoma
  TGI: > 100 µM
IGROV1 ovarian
  TGI: > 100 µM
HCT-116 colon
  TGI: > 100 µM
PC-3 prostate
  TGI: > 100 µM
